Here are results for 32 molecules from patent US8183262B2, “Pyridine derivatives as mGluR2 antagonists” (Hoffmann-La Roche Inc., priority 2007, dated 2012).

For `NS(=O)(=O)c1cccc(-c2cn(-c3nc(-c4ccc(C(F)(F)F)cc4)cc(C(F)(F)F)n3)cn2)c1` [Example 160, 3-{1-[4-Trifluoromethyl-6-(4-trifluoromethyl-phenyl)-pyrimidin-2-yl]-1H-imidazol-4-yl}-benzenesulfonamide], the melting point (usually the temperature of the solid-liquid transition) is 198 °C.

Consider `NS(=O)(=O)c1ccc(-c2cccc(-c3nc(-c4ccc(C(F)(F)F)cc4)cc(C(F)(F)F)n3)c2)s1` [Example 161, 5-{3-[4-Trifluoromethyl-6-(4-trifluoromethyl-phenyl)-pyrimidin-2-yl]-phenyl}-thiophene-2-sulfonic acid amide], for which the melting point came to 204 °C.

`CC(C)(C)NS(=O)(=O)c1ccc(-c2cc(-c3nc(-c4ccc(C(F)(F)F)cc4)cc(C(F)(F)F)n3)ccn2)s1` [Example 162, 5-{4-[4-Trifluoromethyl-6-(4-trifluoromethyl-phenyl)-pyrimidin-2-yl]-pyridin-2-yl}-thiophene-2-sulfonic acid tert-butylamide] came in with a melting point of 237 °C.

`NS(=O)(=O)c1ccc(-c2cn(-c3nc(-c4ccc(C(F)(F)F)cc4)cc(C(F)(F)F)n3)cn2)s1` [Example 163, 5-{1-[4-Trifluoromethyl-6-(4-trifluoromethyl-phenyl)-pyrimidin-2-yl]-1H-imidazol-4-yl}-thiophene-2-sulfonic acid amide] gave a melting point of 281 °C.

The molecule `NS(=O)(=O)c1ccc(-c2cc(-c3nc(-c4ccc(C(F)(F)F)cc4)cc(C(F)(F)F)n3)ccn2)s1` [Example 164, 5-{4-[4-Trifluoromethyl-6-(4-trifluoromethyl-phenyl)-pyrimidin-2-yl]-pyridin-2-yl}-thiophene-2-sulfonic acid amide] came in with a melting point of 262 °C.

With `Cc1cc(-c2ccc(C(F)(F)F)cc2)nc(-c2cccc(-c3cccc(S(=O)(=O)NC(C)(C)C)c3)c2)n1` [Example 165, 3′-[4-Methyl-6-(4-trifluoromethyl-phenyl)-pyrimidin-2-yl]-biphenyl-3-sulfonic acid tert-butylamide], the melting point turned out to be 163 °C.

As for `Cc1cc(-c2ccc(Cl)cc2)nc(-c2cccc(-c3cccc(S(N)(=O)=O)c3)c2)n1` [Example 166, 3′-[4-(4-Chloro-phenyl)-6-methyl-pyrimidin-2-yl]-biphenyl-3-sulfonic acid amide], the melting point was 221 °C.

`Cc1cc(-c2ccc(C(F)(F)F)cc2)nc(-c2ccnc(-c3cccc(S(N)(=O)=O)c3)c2)n1` [Example 168, 3-{4-[4-Methyl-6-(4-trifluoromethyl-phenyl)-pyrimidin-2-yl]-pyridin-2-yl}-benzenesulfonamide] displayed a melting point of 218.5 °C.

Consider `CC(C)(C)NS(=O)(=O)c1ccc(-c2cccc(-c3nc(-c4ccc(Cl)cc4)cc(C(F)(F)F)n3)c2)s1` [Example 169, 5-{3-[4-(4-Chloro-phenyl)-6-trifluoromethyl-pyrimidin-2-yl]-phenyl}-thiophene-2-sulfonic acid tert-butylamide], for which the melting point is 197.5 °C.

Turning to `NS(=O)(=O)c1ccc(-c2cc(-c3nc(-c4ccc(Cl)cc4)cc(C(F)(F)F)n3)ccn2)s1` [Example 170, 5-{4-[4-(4-Chloro-phenyl)-6-trifluoromethyl-pyrimidin-2-yl]-pyridin-2-yl}-thiophene-2-sulfonic acid amide], the melting point amounted to 290 °C.

Molecule `NS(=O)(=O)c1ccc(-c2cn(-c3nc(-c4ccc(Cl)cc4)cc(C(F)(F)F)n3)cn2)s1` [Example 171, 5-{1-[4-(4-Chloro-phenyl)-6-trifluoromethyl-pyrimidin-2-yl]-1H-imidazol-4-yl}-thiophene-2-sulfonic acid amide] showed a melting point of 284 °C.

For `Cc1cc(-c2ccc(C(F)(F)F)cc2)nc(-c2cccc(-c3ccc(S(N)(=O)=O)s3)c2)n1` [Example 172, 5-{3-[4-Methyl-6-(4-trifluoromethyl-phenyl)-pyrimidin-2-yl]-phenyl}-thiophene-2-sulfonic acid amide], the melting point was determined as 225 °C.

In the case of `Cc1cc(-c2ccc(Cl)cc2)nc(-c2cccc(-c3ccc(S(N)(=O)=O)s3)c2)n1` [Example 173, 5-{3-[4-(4-Chloro-phenyl)-6-methyl-pyrimidin-2-yl]-phenyl}-thiophene-2-sulfonic acid amide], the melting point turned out to be 227 °C.

As to `NS(=O)(=O)c1ccc(-c2cccc(-c3nc(-c4ccc(Cl)cc4)cc(C(F)(F)F)n3)c2)s1` [Example 174, 5-{3-[4-(4-Chloro-phenyl)-6-trifluoromethyl-pyrimidin-2-yl]-phenyl}-thiophene-2-sulfonic acid amide], the melting point came out at 226 °C.

In turn, `NS(=O)(=O)c1ccc(-c2cn(-c3nc(-c4ccc(Cl)cc4)cc(C(F)(F)F)n3)cn2)cc1` [Example 175, 4-{1-[4-(4-Chloro-phenyl)-6-trifluoromethyl-pyrimidin-2-yl]-1H-imidazol-4-yl}-benzenesulfonamide] came in with a melting point of 324 °C.

For the molecule `Cc1cc(-c2ccc(Cl)cc2)nc(-n2cnc(-c3cccc(S(N)(=O)=O)c3)c2)n1` [Example 176, 3-{1-[4-(4-Chloro-phenyl)-6-methyl-pyrimidin-2-yl]-1H-imidazol-4-yl}-benzenesulfonamide], the melting point was determined as 275 °C.

Molecule `NS(=O)(=O)c1cccc(-c2cn(-c3nc(-c4ccc(Cl)cc4)cc(C(F)(F)F)n3)cn2)c1` [Example 177, 3-{1-[4-(4-Chloro-phenyl)-6-trifluoromethyl-pyrimidin-2-yl]-1H-imidazol-4-yl}-benzenesulfonamide] showed a melting point of 225 °C.

For `NS(=O)(=O)c1cccc(-c2cccc(-c3nc(-c4ccc(Cl)cc4)cc(C(F)(F)F)n3)c2)c1` [Example 178, 3′-[4-(4-Chloro-phenyl)-6-trifluoromethyl-pyrimidin-2-yl]-biphenyl-3-sulfonic acid amide], the melting point was determined as 165 °C.

As for `NS(=O)(=O)c1cccc(-c2cc(-c3nc(-c4ccc(Cl)cc4)cc(C(F)(F)F)n3)ccn2)c1` [Example 179, 3-{4-[4-(4-Chloro-phenyl)-6-trifluoromethyl-pyrimidin-2-yl]-pyridin-2-yl}-benzenesulfonamide], the melting point was 182 °C.

`Cc1cc(-c2ccc(Cl)cc2)nc(-n2cnc(-c3ccc(S(N)(=O)=O)cc3)c2)n1` [Example 180, 4-{1-[4-(4-Chloro-phenyl)-6-methyl-pyrimidin-2-yl]-1H-imidazol-4-yl}-benzenesulfonamide] gave a melting point of 312 °C.

On to `NS(=O)(=O)c1cnc(-c2cn(-c3nc(-c4ccc(C(F)(F)F)cc4)cc(C(F)(F)F)n3)cn2)s1` [Example 181, 2-{1-[4-Trifluoromethyl-6-(4-trifluoromethyl-phenyl)-pyrimidin-2-yl]-1H-imidazol-4-yl}-thiazole-5-sulfonic acid amide], for which the melting point came out at 264 °C.

For `NS(=O)(=O)c1cnc(-c2cn(-c3nc(-c4ccc(Cl)cc4)cc(C(F)(F)F)n3)cn2)s1` [Example 182, 2-{1-[4-(4-Chloro-phenyl)-6-trifluoromethyl-pyrimidin-2-yl]-1H-imidazol-4-yl}-thiazole-5-sulfonic acid amide], the melting point turned out to be 263 °C.

With `Cc1cc(-c2ccc(C(F)(F)F)cc2)nc(-n2cnc(-c3ccc(S(N)(=O)=O)cc3)c2)n1` [Example 183, 4-{1-[4-Methyl-6-(4-trifluoromethyl-phenyl)-pyrimidin-2-yl]-1H-imidazol-4-yl}-benzenesulfonamide], the melting point was 323 °C.

In the case of `Cc1cc(-c2ccc(C(F)(F)F)cc2)nc(-n2cnc(-c3cccc(S(N)(=O)=O)c3)c2)n1` [Example 184, 3-{1-[4-Methyl-6-(4-trifluoromethyl-phenyl)-pyrimidin-2-yl]-1H-imidazol-4-yl}-benzenesulfonamide], the melting point came out at 186 °C.

As to `Nc1ccc(-c2cn(-c3nc(-c4cccc(Cl)c4)cc(C(F)(F)F)n3)cn2)cn1` [Example 186, 5-{1-[4-(3-Chloro-phenyl)-6-trifluoromethyl-pyrimidin-2-yl]-1H-imidazol-4-yl}-pyridin-2-ylamine], the melting point came to 248 °C.

`NS(=O)(=O)c1ccc(-c2cn(-c3nc(-c4cccc(Cl)c4)cc(C(F)(F)F)n3)cn2)s1` [Example 188, 5-{1-[4-(3-Chloro-phenyl)-6-trifluoromethyl-pyrimidin-2-yl]-1H-imidazol-4-yl}-thiophene-2-sulfonic acid amide] came in with a melting point of 280 °C.

Turning to `Cc1cc(-c2ccc(Cl)cc2)nc(-c2ccnc(-c3cccc(S(N)(=O)=O)c3)c2)n1` [Example 189, 3-{4-[4-(4-Chloro-phenyl)-6-methyl-pyrimidin-2-yl]-pyridin-2-yl}-benzenesulfonamide], the melting point is 224 °C.

For `Cc1cc(-c2ccc(Cl)cc2)nc(-n2cnc(-c3ccc(S(N)(=O)=O)s3)c2)n1` [Example 190, 5-{1-[4-(4-Chloro-phenyl)-6-methyl-pyrimidin-2-yl]-1H-imidazol-4-yl}-thiophene-2-sulfonic acid amide], the melting point amounted to 281 °C.

The molecule `Cc1cc(-c2ccc(C(F)(F)F)cc2)nc(-n2cnc(-c3ccc(S(N)(=O)=O)s3)c2)n1` [Example 191, 5-{1-[4-Methyl-6-(4-trifluoromethyl-phenyl)-pyrimidin-2-yl]-1H-imidazol-4-yl}-thiophene-2-sulfonic acid amide] returned a melting point of 277 °C.

In turn, `Cc1cc(-c2ccc(Cl)cc2)nc(-c2ccnc(-c3ccc(S(N)(=O)=O)s3)c2)n1` [Example 192, 5-{4-[4-(4-Chloro-phenyl)-6-methyl-pyrimidin-2-yl]-pyridin-2-yl}-thiophene-2-sulfonic acid amide] came in with a melting point of 232.5 °C.

As to `Cc1cc(-c2ccc(Cl)c(Cl)c2)nc(-c2cccc(-c3cccc(S(N)(=O)=O)c3)c2)n1` [Example 193, 3′-[4-(3,4-Dichloro-phenyl)-6-methyl-pyrimidin-2-yl]-biphenyl-3-sulfonic acid amide], the melting point was 206.5 °C.

As to `Cc1cc(-c2ccc(Cl)c(Cl)c2)nc(-c2ccnc(-c3cccc(S(N)(=O)=O)c3)c2)n1` [Example 194, 3-{4-[4-(3,4-Dichloro-phenyl)-6-methyl-pyrimidin-2-yl]-pyridin-2-yl}-benzenesulfonamide], the melting point was 202.5 °C.
